Values joined by “and” are separate entries in the source; they are usually repeats but may differ in a detail not shown here. Equal values may be shown once.
How the values were obtained:
Leishmania donovani = assay: Antileishmanial assay, Leishmania in infected macrophages (L. donovani); conditions: Leishmania donovani, Macrophage, read-out: IC50 Leishmania in infected macrophages
[1] = test system: P. falciparum clone W2/Indochina; assay: In vitro malaria assay, [3H]-hypoxanthine incorporation; assay type: cell-based; conditions: Plasmodium falciparum, W2, 72 h, read-out: IC50 Plasmodium
Protocol: a. In vitro Parasite Culturing: P. falciparum clone W2/Indochina was grown in continuous culture using RPMI 1640 media containing 10% heat-inactivated type A+ human plasma, sodium bicarbonate (2.4 g/L), HEPES (5.94 g/L) and 4% washed human type A+ erythrocytes. Cultures were gassed with a 90% N2, 5% O2 and 5% CO2 mixture followed by incubation at 37° C. b. Assay Preparation: Test compounds at 5 mg/mL in DMSO were diluted 1:500 and then serially diluted in duplicate over 11 concentrations. P. falciparum cultures with >70% ring stage parasites were diluted to 0.5-0.7% parasitemia and 1.5% hematocrit in RPMI 1640 media. In 96-well plates a volume of 90 μl/well of parasitized erythrocytes was added on top of 10 μL/well of the test compound. A separate plate containing chloroquine, dihydroartemisinin and atovaquone was added to each set of assay plates as control drugs. A Beckman Coulter Biomek 3000 was used to dispense test compounds, control drugs and parasitized erythrocytes into the microtiter plates. Positive and negative controls were included in each plate. Positive controls consisted of parasitized erythrocytes and negative controls consisted of non-parasitized erythrocytes at 1.5% hematocrit in RPMI 1640 media. Assay plates were placed into a modulator incubator chamber and equilibrated with 90% N2, 5% O2 and 5% CO2 mixture then incubated at 37° C. for 48 hours. After 48 hours, approximately 0.05 μCi of [^3H]-hypoxanthine monohydrochloride was added to each well of the assay plates. Plates were put back into the modulator incubation chamber, gassed with the 90% N2, 5% O2 and 5% CO2 mixture then incubated at 37° C. for an additional 24 hours. After 72 hours total incubation time the plates were frozen at −80° C. until later processed for parasite growth determinations. c. Assay Plate Processing: Assay plates were harvested using a Perkin Elmer FilterMate Harvester. The incorporation of [^3H]-hypoxanthine into nucleic acid was measured using a Perkin Elmer Topcount NXT Microplate Scintillation & Luminescence Counter. d. Data Analysis: Data analysis was performed using a custom database manager (Dataspects, Inc). Nonlinear regression analysis was used to calculate EC50.

Leishmania amazonensis = assay: Antileishmanial assay, Leishmania in infected macrophages (L. amazonensis); conditions: Leishmania amazonensis
[2] = Body and organ weights of infected, treated BALB/c mice; assay type: in vivo
Protocol: (§1) Compounds 47, 48, and 50 were then evaluated in animal studies with BALB/c mice with leishmaniasis. Compounds were delivered via i.p. injection at 10 mg/kg, with untreated, vehicle, and miltefosine controls as described in Table 2. […] Miltefosine, the only oral treatment currently available to treat leishmaniasis in humans, was also evaluated in the BALB/c mice for comparison purposes.

[3] = test system: leishmaniasis (LV82 PM infection), liver parasitemia; assay: In vivo efficacy: liver parasitemia in BALB/c mice with leishmaniasis; conditions: 10 mg/kg i.p.
Protocol: The following protocols were used to prepare the various treatments described in Table 2: • a. Miltefosine ([…] stock solution in sterile PBS): 7.5 mg miltefosine was weighed and put in a eppendorf tube, then 0.75 mL of sterile PBS was added. After vortexing, a clear solution was formed. Make 1 mg/mL solution daily by diluting 100 μL of 10 mg/mL miltefosine solution in 900 μL sterile PBS. • b. Vehicle control: 5% (v/v) DMSO, 50% (v/v) PEG 400, 10% (v/v) Ethanol, and 35% (v/v) distilled water. • c. Compound 47 (2 mg/mL solution of compound 47 in PEG 400/Ethanol vehicle): […]. Dilute the above solution 1:20 with PEG 400/EtOH/water daily. After vortexing and warming up at 37° C. for 30 min., a clear solution formed. • d. Compound 48 (2 mg/mL solution of compound 48 in PEG 400/Ethanol vehicle): 6.8 mg of compound 48 was dissolved in 0.17 mL of DMSO to make a 40 mg/mL stock solution. After vortexing, a yellowish-brown solution was formed. Diluted the above solution 1:20 with PEG 400/EtOH/water daily. After vortexing a clear solution formed. • e. Compound 50 (2 mg/mL solution of compound 50 in PEG 400/Ethanol vehicle): 8.4 mg of compound 50 was dissolved in 0.21 mL of DMSO to make a 40 mg/mL stock solution. After vortexing, a dark yellowish-brown solution was formed. Diluted the above solution 1:20 with PEG 400/EtOH/water. After vortexing a clear solution formed.
as §1

Row | SMILES | IC50 (Leishmania donovani) | further results
1 | C=C[C@@H](C#CC#CC(CCCCCCCCC)NC(=O)c1ccc(Cl)cc1)OC(C)=O (stereo in doubt) [Compound 39, (3S,8R)-8-(4-chlorobenzamido)heptadeca-1-en-4,6-diyn-3-yl acetate] | 112 nM | 
2 | C=C[C@@H](C#CC#CC(CCCCCCCCC)NC(=O)c1ccc(Cl)c(Cl)c1)OC(C)=O (stereo in doubt) [Compound 40, (3S,8R)-8-(3,4-dichlorobenzamido)heptadeca-1-en-4,6-diyn-3-yl acetate] | 428 nM | 
3 | C=C[C@@H](C#CC#CC(CCCCCCCCC)NC(=O)c1ccc(C)cc1)OC(C)=O (stereo in doubt) [Compound 41, (3S,8R)-8-(4-methylbenzamido)heptadeca-1-en-4,6-diyn-3-yl acetate] | 126 nM | 
4 | C=C[C@@H](C#CC#CC(CCCCCCCCC)NC(=O)c1ccc(OC)cc1)OC(C)=O (stereo in doubt) [Compound 42, (3S,8R)-8-(4-methoxybenzamido)heptadeca-1-en-4,6-diyn-3-yl acetate] | 165 nM | 
5 | C=C[C@H](C#CC#C[C@H](O)CCCCCCCCC)OC(C)=O [Compound 2, (3R,8R)-8-hydroxyheptadeca-1-en-4,6-diyn-3-yl acetate] |  | IC50 [1]: 8.07 µg/mL; anti-Leishmanial activity at 10 μM (Leishmania amazonensis; 10 μM): no anti-Leishmanial activity; IC50 (Leishmania amazonensis; Macrophage, read-out: IC50 Leishmania in infected macrophages): > 10000 nM
6 | C=C[C@H](O)C#CC#C[C@@H](CCCCCCCCC)NCCCC [Compound 55, (3S,8R)-8-(butylamino)heptadeca-1-en-4,6-diyn-3-ol] | 3 nM | 
7 | C=C[C@H](O)C#CC#C[C@@H](CCCCCCCCC)NC(=O)c1ccccc1 [Compound 56, N-((3S,8R)-3-hydroxyheptadeca-1-en-4,6-diyn-8-yl)benzamide] | 5 nM | 
8 | C=C[C@H](O)C#CC#C[C@@H](CCCCCCCCC)NC(=O)OCC [Compound 57, ethyl((3S,8R)-3-hydroxyheptadeca-1-en-4,6-diyn-8-yl)carbamate] | 10 nM | 
9 | C=C[C@H](O)C#CC#C[C@@H](CCCCCCCCC)OC [Compound 58, (3S,8R)-8-methoxyheptadeca-1-en-4,6-diyn-3-ol] | 11 nM | 
10 | C=C[C@H](O)C#CC#C[C@@H](CCCCCCCCC)NC(C)=O [Compound 59, N-((3S,8R)-3-hydroxyheptadeca-1-en-4,6-diyn-8-yl)acetamide] | 18 nM | 
11 | C=C[C@@H](C#CC#C[C@@H](CCCCCCCCC)NC(=O)c1cc(C)on1)OC(C)=O [Compound 61, (3S,8R)-8-(5-methylisoxazole-3-carboxamido)heptadeca-1-en-4,6-diyn-3-yl acetate] | 77 nM | 
12 | C=C[C@@H](C#CC#C[C@@H](CCCCCCCCC)NC(=O)c1ccccn1)OC(C)=O [Compound 62, (3S,8R)-8-(picolinamido)heptadeca-1-en-4,6-diyn-3-yl acetate] | 89 nM | 
13 | C=C[C@@H](C#CC#C[C@@H](CCCCCCCCC)NC(=O)c1cnccn1)OC(C)=O [Compound 63, (3S,8R)-8-(pyrazine-2-carboxamido)heptadeca-1-en-4,6-diyn-3-yl acetate] | 42 nM | 
14 | C=C[C@@H](C#CC#C[C@@H](CCCCCCCCC)NC(=O)c1ccccc1Cl)OC(C)=O [Compound 64, (3S,8R)-8-(2-chlorobenzamido)heptadeca-1-en-4,6-diyn-3-yl acetate] | 109 nM | 
15 | C=C[C@@H](C#CC#C[C@@H](CCCCCCCCC)NC(=O)c1cccc(Br)c1)OC(C)=O [Compound 65, (3S,8R)-8-(3-bromobenzamido)heptadeca-1-en-4,6-diyn-3-yl acetate] | 184 nM | 
16 | C=C[C@@H](C#CC#C[C@@H](CCCCCCCCC)NC(=O)c1cccc(C)c1)OC(C)=O [Compound 66, (3S,8R)-8-(3-methylbenzamido)heptadeca-1-en-4,6-diyn-3-yl acetate] | 120 nM | 
17 | C=C[C@@H](C#CC#C[C@@H](CCCCCCCCC)NC(=O)c1ccc(F)cc1)OC(C)=O [Compound 67, (3S,8R)-8-(4-fluorobenzamido)heptadeca-1-en-4,6-diyn-3-yl acetate] | 72 nM | 
18 | C=C[C@@H](C#CC#C[C@@H](CCCCCCCCC)NC(=O)c1cccc(C(F)(F)F)c1)OC(C)=O [Compound 68, (3S,8R)-8-(3-(trifluoromethyl)benzamido)heptadeca-1-en-4,6-diyn-3-yl acetate] | 191 nM | 
19 | C=C[C@@H](C#CC#C[C@@H](CCCCCCCCC)NC(=O)c1ccco1)OC(C)=O [Compound 69, (3S,8R)-8-(furan-2-carboxamido)heptadeca-1-en-4,6-diyn-3-yl acetate] | 50 nM | 
20 | C=C[C@@H](C#CC#C[C@@H](CCCCCCCCC)NC(=O)c1cc(Cl)cc(Cl)c1)OC(C)=O [Compound 70, (3S,8R)-8-(3,5-dichlorobenzamido)heptadeca-1-en-4,6-diyn-3-yl acetate] | 252 nM | 
21 | C=C[C@@H](C#CC#C[C@@H](CCCCCCCCC)N=C=S)OC(C)=O [Compound 71, (3S,8R)-8-isothiocyanatoheptadeca-1-en-4,6-diyn-3-yl acetate] | 21600 nM | 
22 | C=C[C@@H](C#CC#C[C@@H](CCCCCCCCC)NC(=O)CCCOCc1ccccc1)OC(C)=O [Compound 72, (3S,8R)-8-(4-(benzyloxy)butanamido)heptadeca-1-en-4,6-diyn-3-yl acetate] | 529 nM | 
23 | CCCCCCCCC[C@H](C#CC#C[C@@H](O)C1CC1)NCCCC [Compound 74, (1S,6R)-6-(butylamino)-1-cyclopropylpentadeca-2,4-diyn-1-ol] | 722 nM | 
24 | C/C=C/[C@H](O)C#CC#C[C@@H](CCCCCCCCC)NCCCC [Compound 75, (4S,9R,E)-9-(butylamino)octadeca-2-en-5,7-diyn-4-ol] | 31 nM | 
25 | CCCCCCCCC[C@H](C#CC#C[C@@H](O)c1ccccc1)NCCCC [Compound 76, (1S,6R)-6-(butylamino)-1-phenylpentadeca-2,4-diyn-1-ol] | 113 nM | 
26 | CCCCCCCCC[C@H](C#CC#C[C@@H](O)c1ccc(OCC)cc1)NCCCC [Compound 77, (1S,6R)-6-(butylamino)-1-(4-ethoxyphenyl)pentadeca-2,4-diyn-1-ol] | 443 nM | 
27 | C=C[C@H](O)C#CC#C[C@@H](CCCCCCCCC)NCC [Compound 78, (3S,8R)-8-(ethylamino)heptadeca-1-en-4,6-diyn-3-ol] | 30 nM | 
28 | C=C[C@@H](C#CC#C[C@@H](CCCC1CCCCC1)NC(=O)c1ccccc1)OC(C)=O [Compound 79, (3S,8R)-8-benzamido-11-cyclohexylundeca-1-en-4,6-diyn-3-yl acetate] | 27 nM | 
29 | CCCCCCCCCCCCCCCCOP(=O)([O-])OCC[N+](C)(C)C [Miltefosine, reference compound] |  | Body weight ([2]; 10 mg/kg i.p., individual mice, Table 4): 18.3 g and 18.0 g and 17.1 g and 20.0 g; Mean body weight of mice Post-treatment ([2]; post-treatment, 10 mg/kg i.p., group mean): 18.4 g; Mean body weight of mice Pre-treatment ([2]; pre-treatment (baseline), group mean): 18.4 g; LDU mean ± SD ([3]; group mean, n=4): 87.0; % Reduction (Average) in liver parasitemia ([3]; infected BALB/c mice): 98% and 97.8%; # of amastigotes per 200 nuclei ([3]; liver, individual mice): 22 and 13 and 8 and 24; LDU ([3]; total liver parasitemia, individual mice): 109.6 and 67.7 and 35.9 and 134.9

Source: patent publication US20130261133A1, “Therapeutic Compounds for Protozoal and Microbial Infections and Cancer” (THE UNIVERSITY OF MONTANA, priority 2012, published 2013)
